In data set [1] the test system is skin sensitization. The following applies: vinyl ethers stated as negative; basis not given; cited from earlier work.
In data set [2] the test system is skin sensitization. The following applies: cited from earlier work.
In data set [3] the test system is female mice. Description: Skin sensitization test, local lymph node assay (LLNA, OECD test guideline 429), BrdU intake by ELISA. The following applies: test substance 50.0 w/v % in acetone/olive oil 4:1, 25 μL/auricle once a day for 3 days. (An ELISA detects its analyte on a solid surface through an enzyme-linked reagent.)
Procedure: (§1) According to the skin sensitization test of local lymph node assay (LLNA) specified in OECD test guideline 429, the SI value was measured in the following manner.
(§2) Before treated with the test substances, the positive control or the vehicle control, female mice were acclimated for 8 days including 6-day quarantine. No abnormalities were found in all the mice (used animals) during the quarantine/acclimation period. Based on the body weights measured 2 days before the initiation of sensitization, they were categorized into 2 groups (4 mice/group) by the body weight stratified random sampling method so that the body weight of each individual was within ±20% of the average body weight of all the individuals. Each of the used animals was 8 weeks old to 9 weeks old at the time of the initiation of sensitization. […]
(§3) About 24 hours after the administration of BrdU, the used animals were allowed to undergo euthanasia, and their auricular lymph nodes were sampled. […] Also, the average of the weights of the auricular lymph nodes and the standard error thereof were calculated for each group. […]
(§4) After returning the auricular lymph nodes to room temperature, the auricular lymph nodes were mashed with the gradual addition of physiological saline, and suspended therein. […] The thus-dispensed suspensions were measured for intake of BrdU by the ELISA method. […]
In data set [4] the test system is female mice. The following applies: mouse, in vivo.
Procedure: as §1, §2, §3, §4

Read-outs that look alike come from different tables or passages of the source.

Regarding `C=COCCOCCOCCOC=C` [triethylene glycol divinyl ether], the Skin sensitization entry in data set [1] was “negative for skin sensitization”.
On to `O=C(c1ccccc1)C1(O)CCCCC1` [Irgacure 184, 1-hydroxycyclohexylphenyl ketone], for which, in data set [2], the “Skin sensitization evaluated in MSDS” value is “no”.
As to `C=COCC` [ethyl vinyl ether], the Skin sensitization result in data set [1] was “negative for skin sensitization”.
For `C=C(C)C(=O)OCCOCCOC(=O)C(=C)C` [Compound 2G, Diethylene glycol dimethacrylate], the “SI value (Stimulation Index)” value in data set [3] was 1.1.
Consider “Caprolactone-modified dipentaerythritol hexaacrylate [DPCA60]”, for which the “SI value (Stimulation Index)” value in data set [4] amounted to 1.0.
With `C=COCCCCO` [hydroxybutyl vinyl ether], the Skin sensitization result in data set [1] is recorded as “negative for skin sensitization”.
In the case of `Cc1cc(C)c(C(=O)P(=O)(C(=O)c2c(C)cc(C)cc2C)c2ccccc2)c(C)c1` [Irgacure 819, Bis(2,4,6-trimethylbenzoyl)-phenylphosphone oxide], the “Skin sensitization evaluated in MSDS” value in data set [2] (MSDS) is listed as “yes”.

These data come from US9187658B2, “Photopolymerizable inkjet ink, ink cartridge, and inkjet recording device” (Ricoh Company, Ltd., priority 2013, dated 2015).
